{"source": "patent US20230158091A1", "about": "“C[…] CARRIER” (New York Medical College, priority 2020, published 2023)", "key": {"[1]": {"test_system": "rats with cortical contusion injury (TBI)", "assay": "Cortical contusion injury (weight drop TBI), lesion histology", "format": "in vivo, rat", "experimental": "(§1) Cortical Contusion Injury. Adult male and female Sprague-Dawley and Wistar rats (225-350 gm) received a moderately severe cortical impact injury under anesthesia with a controlled weight drop apparatus mounted on a stereotactic apparatus. Anesthesia was induced with ketamine/xylazine (60/6 mg/kg i.p.). A midline incision was performed to expose the skull. The dura was exposed with a 4.4-mm craniotomy centered at 1.4-mm posterior and 2.4-mm lateral to the bregma for placement of the 4-mm diameter foot-plate of the contusion apparatus. Contusion injury force of 600 g/cm was produced with a 20-g weight and dropping distance of 30-cm. The 20-g weight was released into a vertical guided tube that strikes the foot plate positioned at the end of the tube which is in contact with the dura. To avoid brain penetration, the foot-plate was prevented by a guide from moving greater than 2.5-mm into the dura.\n(§2) Drug Administration. Rats in the TBI+CBD group received the gelfoam sponge infused with CBD (20.0 mg/ml) directly to the open contusion site overlying the dura within 2 min after the weight was removed from the apparatus. CBD was also administered systemically 10 min following surgery at 40 mg/kg followed by 20 mg/kg for all other injection days. TBI rats received gelfoam with coconut or olive oil directly onto the open contusion site overlying the dura following their respective surgical contusions. TBI rats also received vehicle, either coconut oil, olive oil, or PBS systemically at equal volumes that were administered to CBD treated animals according to weight (0.1-0.4 cc).\nAfter direct delivery of the CBD internal gelatinized matrix, dental acrylic was used to close the wound. Animals became active 30-40 min following surgery.\nFIG. 5 depicts schematic overview perspectives of an internal CBD absorbable medical carrier applied to the internal brain wound in the rat with systemic supplementation."}, "[2]": {"test_system": "rats with cortical contusion injury (TBI)", "assay": "Cortical contusion injury, hippocampal cell counts after H&E staining", "format": "in vivo, rat", "experimental": "as §1, §2\nIn the contralateral CAL injured cells were intermingled among healthy appearing round cell bodies. […] In contrast to the TBI+vehicle group, the ipsilateral hippocampus was predominantly intact in all CBD treated animals but with disproportional levels of injured cells throughout the subfields. There were varied numbers of pyknotic, acidophilic, irregular shaped CA1 and CA3a (not illustrated) neurons.\nSince 9 of 13 animals from the TBI+vehicle group had spared ipsilateral hippocampal tissue, counting of injured vs. healthy appearing cells of the CA1 subregion was carried out in a subset of animals from the TBI+vehicle group and compared with the CBD treated group to estimate whether injury on one side is related to the amount of injury on the other side. Measurements of the CA1 area and total volumetric measurements of the ipsilateral hemisphere were used for correlating ipsilateral injury with ipsilateral and contralateral hippocampal cellular injury."}, "[3]": {"test_system": "rats with cortical contusion injury (TBI)", "assay": "Beam balance test (vestibulomotor function) after TBI", "format": "in vivo, rat", "conditions": "compared to TBI untreated rats; day 14 through day 28", "experimental": "as §1\nDrug Administration. Rats in the TBI+CBD group received the gelfoam sponge infused with CBD (20.0 mg/ml) directly to the open contusion site overlying the dura within 2 min after the weight was removed from the apparatus. CBD was also administered systemically 10 min following surgery at 40 mg/kg followed by 20 mg/kg for all other injection days. […]\nVestibulomotor function was determined with the beam balance test in the TBI untreated and TBI+CBD treated rats. […]"}, "[4]": {"test_system": "rats with cortical contusion injury (TBI)", "assay": "Spontaneous alternating T-maze after TBI", "format": "in vivo, rat", "experimental": "as §1, §2\nThe spontaneous alternating T-maze was utilized at 3 and 28 days following TBI or TBI+CBD in order to assess spatial sense, memory and cognitive ability. Naïve untreated rats spontaneously alternated between left and right arms. There was a tendency of asymmetry to the left arm, but the number of entries was not great enough to exclude the possibility that the difference was due to random sampling variability (L: 6.3±1.7 vs. R: 4.7±0.52, N=10, two-tailed t=2.1, df=18, p=0.05). At 3 days following TBI to the left hemisphere, arm entry was impaired."}, "[5]": {"test_system": "rats with cortical contusion injury (TBI)", "assay": "Novel Object Recognition test after TBI", "format": "in vivo, rat", "experimental": "as §1, §2\nThe Novel Object Recognition test was utilized to evaluate the short-term and working memory of the TBI+CBD group compared to control TBI levels at 27-29 days and naive untreated young rats. Following habituation, animals could explore an open field with two objects for 3 consecutive days by introducing two same objects on day 1 and adding a novel object on days 2 and 3 without visual cues."}, "[6]": {"test_system": "rats with spinal cord contusion (SCI)", "assay": "Spinal cord contusion (SCI), lesion and locomotor recovery", "format": "in vivo, rat", "source_text": "FIG. 6 depicts schematic overview perspectives of an internal CBD absorbable medical carrier applied to the internal wound in the rat with systemic supplementation with a spinal cord contusion (SCI)."}, "[7]": {"conditions": "cited from earlier work"}, "[8]": {"conditions": "comparison of both hemispheres, p=0.037"}}, "note": "Entries after “also recorded” stand apart in the source; their conditions may differ. Like-named read-outs stand apart in the source and are kept apart here.", "data": [{"smiles": "C=C(C)[C@@H]1CCC(C)=C[C@H]1c1c(O)cc(CCCCC)cc1O", "note": "[CBD, cannabidiol]", "values": [{"measurement": "area affected, normalized to TBI+vehicle treated group", "setting": "[1]; Bregma AP 1.2 to −6.8, local sponge plus systemic CBD, p=0.0008", "result": "34.04±6.38", "unit": "%"}, {"measurement": "ipsilateral cortical/hippocampal lesion volume", "setting": "[1]; approximated from 12 levels, 4 weeks after TBI, gelfoam sponge with CBD 20.0 mg/ml at contusion site plus systemic CBD 40 then 20 mg/kg, TBI+vehicle 69.85±7.2", "result": "21.4±3.5", "unit": "mm^3"}, {"measurement": "lesion size after brain contusion (in words)", "setting": "[1]; compared to contusion alone / TBI+vehicle", "result": "reduced ipsilateral lesion size; also recorded: decreased the size of the ipsilateral lesion"}, {"measurement": "total anterior to posterior lesion measurement", "setting": "[1]; local sponge plus systemic CBD, TBI control 6.586±0.2, p=0.008", "result": "5.867±0.17", "unit": "mm"}, {"measurement": "lesion area at posterior levels (Bregma AP: −6.8 or further)", "setting": "[1]; local sponge plus systemic CBD, comparison value 1.22±0.35, p=0.347", "result": "0.92±0.17", "unit": "mm^2"}, {"measurement": "hippocampal injury at the cellular level (H&E, in words)", "setting": "[2]; CBD local and peripheral delivery system", "result": "partially attenuated"}, {"measurement": "contralateral hippocampus hilus irregular stained/injured cells", "setting": "[2]; TBI+vehicle 30.4 4.17, p=0.002", "result": "7.63±1.86"}, {"measurement": "contralateral hippocampus CA1 irregular stained/injured cells", "setting": "[2]; TBI+vehicle 53.3±10.9, p=0.045", "result": "14.22±2.2"}, {"measurement": "number of injured CA1 neurons, contralateral side (comparison of both hemispheres)", "setting": "[2]; [8]", "result": "14.21±2.29"}, {"measurement": "number of injured CA1 neurons, ipsilateral side", "setting": "[2]; [8]", "result": "172.75±70"}, {"measurement": "percent of CA1 contralateral injured cell counts relative to TBI+vehicle", "setting": "[2]; relative to TBI+vehicle", "result": "26.7±4.37", "unit": "%"}, {"measurement": "ratio of ipsilateral injured CA1 neurons to healthy appearing CA1 pyramidal neurons", "setting": "[2]; versus TBI+vehicle", "result": "unchanged"}, {"measurement": "beam balance performance / vestibulomotor function (in words)", "setting": "[3]", "result": "improved balance and locomotor function within a few days; also recorded: significant improvement"}, {"measurement": "time to choose right or left", "setting": "[4]; 3 or 28 days post-injury, not significantly different from TBI+vehicle", "result": "13 to 33", "unit": "s"}, {"measurement": "asymmetry of arm entry to the left", "setting": "[4]; 3 days following TBI to the left hemisphere", "result": "highly significant"}, {"measurement": "percent alternating in T-maze", "setting": "[4]; 28 days after TBI, TBI 17.5±11.8%", "result": "52.5±8.53", "unit": "%"}, {"measurement": "spontaneous alternation (in words)", "setting": "[4]; after 28 days", "result": "significant increase in percent alternating"}, {"measurement": "overall mobility", "setting": "[5]; 27-29 days post-TBI", "result": "greater than TBI rats and similar to naïve untreated controls"}, {"measurement": "speed of travel", "setting": "[5]; 27-29 days post-TBI, p=0.032", "result": "greater speed than TBI rats"}, {"measurement": "distance travelled", "setting": "[5]; averaged from days 2+3 of testing, 27-29 days post-TBI, p=0.03", "result": "greater distance than TBI+vehicle treated rats"}, {"measurement": "number of episodes of interacting with old and novel objects", "setting": "[5]; compared to TBI rats, not significantly different from naïve rats", "result": "much greater"}, {"measurement": "time spent with the novel object", "setting": "[5]; compared to TBI, not significantly different from naïve rats", "result": "much greater"}, {"measurement": "locomotor recovery after spinal cord contusion (in words)", "setting": "[6]; aged female rats, weeks 5 and 6 with continued CBD treatment", "result": "significant locomotor improvement"}, {"measurement": "spinal cord lesion area / tissue preservation (Luxol Fast Blue, in words)", "setting": "[6]; internal CBD carrier plus 1 week of daily CBD injections and 3 weeks of intermittent CBD treatment", "result": "reduced volumetric lesion area"}, {"measurement": "absorbed in the body", "setting": "[7]; ingestion", "result": "5-20%"}, {"measurement": "absorbed in the body", "setting": "[7]; vaping or smoking", "result": "30-60%"}]}]}
